Format in all cases: cell-based
In one test the test system is C33A. In words: Efficacy screening assay. The conditions noted are these: Homo sapiens, C-33-A, cervix, 72 h. How it is done:
(§1) The experiment was performed by Oncolead GmbH & Co. KG (Karlsfeld , Germany), based on a standardized screening procedure . Cell lines were purchased directly from the ATCC, NCI and DSMZ cell line c ollections. Cells used for the study had undergone less than 20 passages. To ensure the absence of potential contamination and wrong assignment, all cell lines were tested using a whole genome assay (Agilent, USA). All cell lines were grown as recommended by the suppliers and with addition of 100 U/mL penicillin G and 100 µg/mL; streptomycin. Cell growth and treatments were performed in Nunclon D 96 -well plates (NUNC, Germany). The optimal seeding density for each cell line was determined to ensure exponential growth for the duration of the experiment. All cells growing without anti-cancer agents were sub-conﬂuent by the end of the treatment, as determined by visual inspection.
(§2) After an initial 24 h pre-growth period, the compounds were added. The vehicle concentration […]
(§3) was 0.1% DMSO. After incubation at 37°C for 72 h, the culture medium was aspirated, and the cells were precipitated by the addition of 10% trichloroacetic acid (Sigma-Aldrich, Missouri, US). After overnight incubation at 4°C, the plates were washed three times with deionized water. The precipitates were then stained with SRB (0.4% wt/v sulforhodamine B solution in 1% acetic acid, Sigma-Aldrich, Missouri, US). Afterwards, the plates were washed six times with 1% acetic acid to remove unbound stain. After drying the plates at room temperature, the bound SRB was solubilized with 10 mM Tris base and the optical density was measured at 520 nm using a Victor2 plate reader (Perkin Elmer, Germany). Blank OD values were subtracted from mean OD values for each concentration. The nonlinear curve ﬁtting and EC50 calculations were per formed using XLﬁt and algorithm “205” (ID Business […]
(§4) one-way ANOVA and multiple comparison (Dunnett) was performed for compound treatments compared to vehicle control. The adjusted p-values with 95% confidence interval were reported as significant. For comparison of EC50 values in Figure 1F, one-way ANOVA with multiple comparison testing (Tukey) was performed. Multiplicity adjusted p -values for the EC50 with sorafenib versus resminostat for each cell line and comparison between cell lines for sorafenib are presented (95% confidence interval for significance testing). For comparison of EC50 data in Figure 2B, one-way ANOVA with multiple comparison testing (Tukey) was performed. Multiplicity adjusted p-values with 95% confidence interval was applied. For the invasion assays in Figure 4, one-way ANOVA with multiple comparison testing (Tukey) was performed. Multiplicity adjusted p-values with 95% confidence interval was applied. The adjusted p-values comparing vehicle control without vs. with platelets and compound

Another test relates to A431. The test is described as follows: Efficacy screening assay. To be noted: A431, skin. On the procedure:
as §1, §2, §3, §4

The subject of test [1] is PLC/PRF/5 and SNU-475 cells. The test is described as follows: ELISA for growth factors PDGF-AA, TGF and VEGF. To be noted: tissue culture supernatants, with or without platelets (Fig. S4B). On the procedure: A. The growth factors PDGF-AA, TGFβ and VEGF were determined from tissue culture supernatants by ELISA. PLC/PRF/5 and SNU-475 cells were cultured with increasing […]
(1 picture or pasted object on this page, not shown here) […]
amounts of platelets. In parallel, platelets were cultured without cells to determine if the growth factors were platelet derived.
B. ELSIAs for PDGF-AA, TGFβ and VEGF were performed after drug treatment of PC/PRF/5 and SNU-475 cells. Cells were cultured as indicated with or without platelets and treated with resminostat, sorafenib, the drug combination or vehicle control 0.1% DMSO.
Table S1_ EC50 cell line screen
S1D. The cancer cell lines, their tissue origins and the respective EC50 values are shown.
Each cell line was seeded in duplicates.

The next test relates to NCIH82. The test is described as follows: Efficacy screening assay. The conditions noted are these: Homo sapiens, NCI-H82, NCIH82, lung, 72 h. How it is done:
(§5) In a two-step reaction, the substrate with the acetylated lysine side chain was incubated for with a sample containing HDAC activity to p roduce the deacetylated products: 1 h at 30°C for HDAC1, 2, 3 and 6; 30 min at RT for HDAC4, 5, 7 and 9; 2 h at 30°C for HDAC8, 10 and […]
(§6) (excitation) and 460 nm (emission). […]
as §1, §2, §3
(§7) For cell-based and other in vitro assays, data are presented as data mean ± SD of at least […]
(§8) For the orthotopic mouse model, data are presented as mean + SEM. For statistical analysis, one-way ANOVA and multiple comparison (Dunnett) was performed for compound treatments compared to vehicle control. The adjusted p-values with 95% confidence interval were reported as significant. For comparison of EC50 values in Figure 1F, one-way ANOVA with multiple comparison testing (Tukey) was performed. Multiplicity adjusted p -values for the EC50 with sorafenib versus resminostat for each cell line and comparison between cell lines for sorafenib are presented (95% confidence interval for significance testing). For comparison of EC50 data in Figure 2B, one-way ANOVA with multiple comparison testing (Tukey) was performed. Multiplicity adjusted p-values with 95% confidence interval was applied. For the invasion assays in Figure 4, one-way ANOVA with multiple comparison testing (Tukey) was performed. Multiplicity adjusted p-values with 95% confidence interval was applied. The adjusted p-values comparing vehicle control without vs. with platelets and compound

Another test relates to ACHN. The test is described as follows: Efficacy screening assay. To be noted: 72 h, kidney. On the procedure: as §5, §6, §1, §2, §3, §7, §8
The mark [2] stands for this setting: log of EC50, negative, read-out: log(EC50) (converted).

Data on one compound can be found in paper PMC8100298, “Histone deacetylase inhibitor resminostat in combination with sorafenib counteracts platelet-mediated pro-tumoral effects in hepatocellular carcinoma” (Scientific Reports, 2021).

Like-named read-outs stand apart in the source and are kept apart here.

For the compound `CN(C)Cc1ccc(S(=O)(=O)n2ccc(/C=C/C(=O)NO)c2)cc1` [resminostat, Resminostat], the EC50 was 1.55 µM in the test with C33A (setting [2]); 1.55 µM in the test with C33A (read-out: EC50); 1.49 µM in the test with A431 (72 h, read-out: EC50); 1.48 µM in the test on A431 (Homo sapiens, A-431, 72 h, log of EC50, negative, read-out: log(EC50) (converted)); 1.49 µM in the test with A431 (Homo sapiens, A-431, 72 h, read-out: EC50); 0.776 µM with NCIH82 (setting [2]). For the same compound, the 50% effective concentration (EC50) was 0.77 µM with NCIH82 (read-out: EC50); 1.95 µM with ACHN (Homo sapiens, log of EC50, negative, read-out: log(EC50) (converted)); 1.95 µM with ACHN (Homo sapiens, read-out: EC50); 1.95 µM in the test on ACHN (read-out: EC50). The “growth factors released by platelets or secreted by HCC cells” value in test [1] is reported as “not consistantly affected”.
